Results as given in patent publication US20120308548A1 (NOVA SOUTHEASTERN UNIVERSITY, priority 2010, published 2012).
Where “and” joins values, the source holds several entries; their conditions need not be identical. Equal entries are not always repeated. Entries after “also recorded” stand apart in the source; their conditions may differ. Where two headings read alike, the source gives them in different places.

What was measured:
MEGL/2ABD = molecular target: T1, MEGL/2ABD (Porphyromonas gingivalis, UniProt Q7MX71); format: biochemical; settings: isotope assay, FIG. 13E
T1 construct: hexa-His tag with TEV protease site (N, cleaved yes); made in house; host or cells: E. coli BL21 (DE3)
Protocol: Typically the overall reaction of α-ketobutyrate formation was performed in a total volume of 24 μl. The reaction contained 4 μl of reaction buffer [150 mM Tris-HCl (pH 8.0)], 4 μl of 1 mM pyridoxal phosphate (PLP), 3 μl of H2O, 6 μl of storage buffer, and 4 μl of diluted protein (0.4 μg), gently mixed and incubated at 37° C. for 5 minutes. The reaction was started by adding 1.93×10^5 cpm of 1-^14C-L-methionine (8814 cpm/nmol) and the contents were incubated at 37° C. for 15 minutes. The reaction was stopped by boiling for a minute, cooled on ice for 2 minutes and centrifuged at 3575 g for 7 minutes. A 2 μl aliquot was then chromatographed on a silica gel plate using 25% 20 mM phosphate buffer (pH 7.0) and 75% acetonitrile. Following chromatography, the TLC plates were dried, and exposed to x-ray film for 36-48 hours (Eastman-Kodak Co). The respective spots of substrate and products were cut out and radioactivity determined by liquid scintillation. […]

HEK-AD293T cells [1] = test: Transfection with MEGL/2ABD construct, confocal microscopy, HEK-AD293T; format: cell-based; settings: for effect of expressed MEGL/2ABD on HEK-AD293T cells: cell aggregation: 18 hours after transfection
Source text: (§1) The recombinant vector pMEGL-ET containing MEGL insert and pEGFP-C3 mammalian expression vector (Promega, Inc.) were digested with EcoR I and Bgl II restriction enzymes. The digested products were separated on 1% agarose to verify digestion and the MEGL insert was ligated into pEGFP-C3 vector. The ligated vector was then transformed into DH5α bacteria and the recombinant colonies were selected by kanamycin resistance. The plasmid from the recombinant colonies, were further tested for the insert by PCR using MEGL/2ABD specific primers. The recombinant bacteria, was then grown in bulk, plasmid isolated by maxi/mini preps using columns (Qiagen, Inc.). Purified plasmid was then used for mammalian transfection. HeLa, HEK-AD293T and BHK-21 cells (ATCC, Rockville, Md.) were grown in 75-cm^2 flasks in Dulbecco's modified Eagle's medium, supplemented with 10% fetal bovine serum 100 units/ml penicillin and 100 μg/ml streptomycin (Invitrogen Inc), in an atmosphere of 5% CO2, 95% air at 37° C. For confocal microscopy, cells were plated on cover slips in 35 mm^2 dishes. When cells reached 50-75% confluency they were placed in serum and antibiotic-free medium and co-transfected with plasmid DNA containing GFP and with or without MEGL/2ABD insert. […] Transfections of HEK-AD293T cells were performed using standard calcium phosphate methods. After incubation of cells for 4-18 hours, cells were washed with phosphate-buffered saline, fixed with 4% formaldehyde for 8 minutes, permeabilized using 0.2% Triton X-100 (Sigma-Aldrich) and mounted on glass slides using the ProLong Antifade Kit (Molecular Probes) for staining with DAPI using standard protocols. Samples were examined on a Zeiss LSM510 confocal microscope.
(§2) After 18 hour incubations cells were washed with phosphate-buffered saline, fixed, permeabilized and mounted on glass slides using the ProLong Antifade Kit (Molecular Probes) with DAPI staining as previously described by Enniga et al. 2006. Samples were examined on a Zeiss LSM510 confocal microscope.

BHK-21 cells [2] = test: Transfection with MEGL/2ABD construct, confocal microscopy, BHK-21; format: cell-based; settings: for effect of expressed MEGL/2ABD on BHK-21 cells: cell aggregation: 18 hours after transfection
Source text: as §1, §2

HeLa cells = test: Transfection with MEGL/2ABD construct, confocal microscopy (GFP, DAPI), HeLa; format: cell-based; settings: for rescue of MEGL/2ABD-transfected HeLa cells from death: propargylglycine in culture medium (10 μM, 2 hours after transfection)
Source text: as §1, §2

MEGL = molecular target: T2, MEGL (Porphyromonas gingivalis, UniProt Q7MX71); format: biochemical
T2 construct: His tag (N, cleaved yes); made in house
Protocol: This assay uses C^14-labeled methionine and recombinant, purified, HIS-TAG cleaved and further purified MEGL protein. The MEGL enzyme forms very specific radiolabeled nonvolatile C^14-labeled α-ketobutyrate. Further the products are separated by a silica gel-G thin layer chromatography (TLC) method using 75% acetonitrile and 25% 20 mM phosphate buffer (pH 7.0) solvent system.
Further characterization of the enzyme was made using these protocols.

[3] = Protocol: Typically the overall reaction of α-ketobutyrate formation was performed in a total volume of 24 μl. The reaction contained 4 μl of reaction buffer [150 mM Tris-HCl (pH 8.0)], 4 μl of 1 mM pyridoxal phosphate (PLP), 3 μl of H2O, 6 μl of storage buffer, and 4 μl of diluted protein (0.4 μg), gently mixed and incubated at 37° C. for 5 minutes. The reaction was started by adding 1.93×10^5 cpm of 1-^14C-L-methionine (8814 cpm/nmol) and the contents were incubated at 37° C. for 15 minutes. The reaction was stopped by boiling for a minute, cooled on ice for 2 minutes and centrifuged at 3575 g for 7 minutes. A 2 μl aliquot was then chromatographed on a silica gel plate using 25% 20 mM phosphate buffer (pH 7.0) and 75% acetonitrile. Following chromatography, the TLC plates were dried, and exposed to x-ray film for 36-48 hours (Eastman-Kodak Co). The respective spots of substrate and products were cut out and radioactivity determined by liquid scintillation.
The activity was measured using different amounts of protein ranging from 0.1 to 1 μg and the reaction was performed for 5-30 minutes.
Reaction at each protein concentration was performed for 15 minutes at pH 8.0 according to the standard assay procedures described. Effect of time was tested using 0.4 μg of protein. […]

BHK-21 cells [4] = settings: BHK-21, 18 hours after transfection
Protocol: (§3) The effect of MEGL on cell viability was determined using 3-[4,5-dimethylthiazol-2-yl]-2,5-diphenyl-tetrazolium bromide (MTT, Sigma-Aldrich). For MTT assay, cells were suspended at a concentration of ˜4×10^4 cells (180 μl/well). 20 μl of MTT solution (5 mg/ml) was added for each well and incubate at 37° C. and 5% CO2 for about 2-5 hours for purple color development. Formazan precipitates were dissolved in DMSO for 30 minutes at 37° C., and the absorbance was measured at 570 nm.
(§4) Viability of cells transfected with MEGL construct. Three different cell lines (Hela, BHK-21, and HEK-AD293T) were plated in 96-well plates and transfected with either vector expressing green fluorescent protein, GFP (pEGFP-C3), or MEGL and GFP (pEGFP-C3-MEGL). After 18 hours of transfection, cells were treated with MTT and viability was determined by measuring the MTT absorbance at λ570 nm. Control absorbance was arbitrarily determined as 100% viability.

HEK-AD293T cells [5] = settings: 18 hours after transfection
Protocol: as §3, §4

[6] = propargylglycine in culture medium (10 μM, 2 hours after transfection)

T1 sequence (Q7MX71 7-399): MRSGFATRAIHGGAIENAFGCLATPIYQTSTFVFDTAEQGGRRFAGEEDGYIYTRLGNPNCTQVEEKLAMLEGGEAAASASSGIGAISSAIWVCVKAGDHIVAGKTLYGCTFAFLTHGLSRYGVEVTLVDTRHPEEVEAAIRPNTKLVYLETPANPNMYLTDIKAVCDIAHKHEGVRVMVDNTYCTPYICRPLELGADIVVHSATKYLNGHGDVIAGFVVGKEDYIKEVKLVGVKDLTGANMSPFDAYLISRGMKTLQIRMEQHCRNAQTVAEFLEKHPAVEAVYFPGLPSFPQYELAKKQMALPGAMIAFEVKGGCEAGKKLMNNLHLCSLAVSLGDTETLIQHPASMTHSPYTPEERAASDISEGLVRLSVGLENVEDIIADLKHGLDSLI
T2 sequence (Q7MX71 7-399): as above

CSCC[C@@H](N)C(=O)O [D-methionine]
relative MEGL/2ABD activity (L-methionine) in the presence of competing compound (MEGL/2ABD): 43.6%

N[C@@H](CCSC[C@H](N)C(=O)O)C(=O)O [L-cystathionine]
relative MEGL/2ABD activity (L-methionine) in the presence of competing compound (MEGL/2ABD): 54.6%

N[C@@H](CS)C(=O)O [L-cysteine]
relative MEGL/2ABD activity (L-methionine) in the presence of competing compound (MEGL/2ABD): 24.5% and 25.5%

N[C@@H](CCOC(=O)CCC(=O)O)C(=O)O [o-succinyl-homoserine, O-succinyl L-homoserine]
relative MEGL/2ABD activity (L-methionine) in the presence of competing compound (MEGL/2ABD): 45.6%

C#CCC(N)C(=O)O (centres unmarked) [propargylglycine, reference compound]
effect on cell aggregation of MEGL/2ABD-transfected HEK-AD293T cells (HEK-AD293T cells [1]; [6]): inhibited MEGL/2ABD mediated cell aggregation; also recorded: prevented cell aggregation; also recorded: inhibited the cell aggregation | effect on cell aggregation of MEGL/2ABD-transfected BHK-21 cells (BHK-21 cells [2]; [6]): inhibited MEGL/2ABD mediated cell aggregation; also recorded: prevented cell aggregation; also recorded: inhibited the cell aggregation | rescue of MEGL/2ABD-transfected HeLa cells from death (HeLa cells): restores cells from death; also recorded: restored viability | rescue of MEGL/2ABD-transfected HeLa cells from death (HeLa cells; listed as Propargylglycine): restored cells from death | rescue of MEGL/2ABD-transfected HeLa cells from death (HeLa cells; listed as propargyl glycine): restored nearly all cells from death | effect of suicide inhibitor on MEGL activity (MEGL): completely knocked out the MEGL activity | relative MEGL/2ABD activity (L-methionine) in the presence of competing compound (MEGL/2ABD): 0.26%

C[Se]CC[C@H](N)C(=O)O [selenomethionine]
relative MEGL/2ABD activity (L-methionine) in the presence of competing compound (MEGL/2ABD): 33.15% | relative MEGL/2ABD activity (L-methionine) in the presence of competing compound (MEGL/2ABD; listed as seleno-methionine): 33.2%

C[S+]([O-])CC[C@H](N)C(=O)O (some centres unmarked) [sulfoxymethionine, methionine-sulfoxide]
relative MEGL/2ABD activity (L-methionine) in the presence of competing compound (MEGL/2ABD): 46.71% | relative MEGL/2ABD activity (L-methionine) in the presence of competing compound (MEGL/2ABD; listed as methionine-sulfoxide): 46.7%

methionine gamma lyase-2-aminobutyrate deaminase [MEGL-2ABD]
effect of expressed MEGL/2ABD on HEK-AD293T cells: cell aggregation (HEK-AD293T cells [1]): severe cell aggregation | effect of expressed MEGL/2ABD on HEK-AD293T cells: cell aggregation (HEK-AD293T cells [1]; listed as MEGL): very prominent cell aggregation | effect of expressed MEGL/2ABD on HEK-AD293T cells: cell aggregation (HEK-AD293T cells [1]; listed as MEGL/2ABD): severe cell aggregation; also recorded: significant cell aggregation | effect of expressed MEGL/2ABD on BHK-21 cells: cell aggregation (BHK-21 cells [2]): severe cell aggregation | effect of expressed MEGL/2ABD on BHK-21 cells: cell aggregation (BHK-21 cells [2]; listed as MEGL): very prominent cell aggregation | effect of expressed MEGL/2ABD on BHK-21 cells: cell aggregation (BHK-21 cells [2]; listed as MEGL/2ABD): severe cell aggregation; also recorded: significant cell aggregation | overall α-ketobutyrate formation at temperatures 72-93° C. ([3]; 72-93° C.): very minimal | temperature range of optimal activity ([3]; 15 minutes, pH 8.0, 0.4 μg protein): 37-55 °C | effect of expressed MEGL/2ABD on HeLa cells (HeLa cells; 18 hours after transfection, listed as MEGL/2ABD): causes cell death; also recorded: significant cell death; also recorded: significant apoptosis | HeLa cell death (HeLa cells; within 18 hours of transfection, judged by confocal images): 30% | cell death (words) (BHK-21 cells [4]; listed as MEGL): no significant cell death | cell death (words) (BHK-21 cells [4]; listed as MEGL/2ABD): no cell death | cell death (words) (HEK-AD293T cells [5]; listed as MEGL): no significant cell death | cell death (words) (HEK-AD293T cells [5]; listed as MEGL/2ABD): no cell death | optimal temperature (MEGL): 37-55 °C | pH optimum (MEGL): 8.0 | Vmax (MEGL; oral pathology section): 0.57 μmol/min/mg protein
